Common to all, as to experiment: Alamar Blue cell viability assay
Holding throughout (assay type): cell-based, Human

The test system of one assay is CAL-27 cells. Particulars: 72 hours. Here is the method: (§1) Alamar Blue (resazurin) was added to the cells and allowed to incubate for 2 hrs at 37° C. Plates were analyzed using a plate reader with fluorescence measured at 560 nm.
The next assay relates to SCC-35 cells. The conditions noted are these: 72 hours. Here is the method:
as §1

For another assay, the system named is SCC-61 cells. Particulars: 72 hours. Here is the method:
as §1

For another assay, the system named is SQ-9G cells. Particulars: 72 hours. Here is the method: as §1
The next assay has as its system HCT-116 cells. The conditions noted are these: Homo sapiens, HCT-116, 72 h, read-out: IC50. The protocol: Alamar Blue (also known as resazurin) was added to the cells and allowed to incubate for 2 hrs at 37° C. Plates were analyzed using a plate reader with fluorescence measured at 560 nm. For irradiated cells, cells were treated with MMAE overnight followed by 6 Gy.
as §1
(§2) Cells were plated in 96-well plates and exposed to MMAE or paclitaxel for 72 hours and analyzed at 560 nm. For irradiated cells, cells were treated with MMAE overnight followed by 6 Gy.

In a further assay the test system is 779E cells. Particulars: Homo sapiens, 72 h. The protocol: (§3) Cells were plated in 96 well plates at varying cell densities and exposed to range of concentrations of MMAE or paclitaxel for 72 hrs. Alamar Blue (also known as resazurin) was added to the cells and allowed to incubate for 2 hrs at 37° C. Plates were analyzed using a plate reader with fluorescence measured at 560 nm. For irradiated cells, cells were treated with MMAE overnight followed by 6 Gy.
as §2

For a further assay, the system named is PANC-1 cells. Particulars: Homo sapiens, PANC-1, 72 h, read-out: IC50. Here is the method: as §3, §2

Where two headings read alike, the source gives them in different places.

By IC50 is commonly meant the midpoint of a concentration-inhibition curve. `N.N.[Cl][Pt][Cl]` [cisplatin]: the IC50 in the assay with CAL-27 cells worked out at 5000 nM; with SCC-35 cells, 30000 nM; in the assay with SCC-61 cells, 10000 nM; with SQ-9G cells, 13000 nM.

For `CC(=O)O[C@H]1C(=O)[C@@]2(C)[C@H]([C@H](OC(=O)c3ccccc3)[C@]3(O)C[C@H](OC(=O)[C@H](O)[C@@H](NC(=O)c4ccccc4)c4ccccc4)C(C)=C1C3(C)C)[C@]1(OC(C)=O)CO[C@@H]1C[C@@H]2O` [paclitaxel], the half-inhibitory concentration (IC50) turned out to be 10 nM with HCT-116 cells (72 hours exposure (Example 3)); 10 nM with HCT-116 cells (72 hours exposure); 52 nM in the assay with 779E cells (72 hours exposure); 52 nM in the assay on 779E cells (72 hours exposure (Example 3)); 15.1 nM in the assay on PANC-1 cells (72 hours exposure (Example 3)); 15.1 nM in the assay on PANC-1 cells (72 hours exposure).

The record behind these values is patent US10596259B2, “Tumor radiosensitization with monomethyl auristatin E (MMAE) and derivatives thereof” (The Regents of the University of California, priority 2015, dated 2020).
